Source: paper PMC11855827, “High-Throughput Screening of Five Compound Libraries for Anthelmintic Activity and Toxicity Leads to the Discovery of Two Flavonoid Compounds” (International Journal of Molecular Sciences, 2025)
Values joined by “and” are separate entries in the source; they are usually repeats but may differ in a detail not shown here. Identical values can stand only once. Counter-ions that a name gives are not always drawn. Like-named read-outs stand apart in the source and are kept apart here.

Test system: C. elegans
[1] = Table S2, C. elegans SS assay, 110 μM, 0 h, averages of 4 data points
[2] = Table S2, C. elegans SS assay, 110 μM, 24 h, averages of 4 data points

Row | Compound | Percentage of motility inhibition 0 h [1] | Percentage of motility inhibition 24 h [2] | Percentage of motility inhibition 0 h (110 µM) | Percentage of motility inhibition 24 h (110 µM)
1 | C[C@H]1O[C@@H](O[C@H]2CC[C@@]3(C)[C@@H](CC[C@]4(C)[C@@H]3C=C[C@]35OC[C@@]6(CCC(C)(C)C[C@H]63)[C@H](O)C[C@]54C)[C@]2(C)CO)[C@H](O)[C@@H](O[C@@H]2O[C@H](CO)[C@@H](O)[C@H](O)[C@H]2O)[C@H]1O [Saikosaponin D] | 34% | 52% | – | –
2 | C[C@@H]1O[C@@H](O[C@H]2[C@H](O)[C@@H](O)[C@H](O[C@H]3CC[C@]4(C)[C@H]5CC=C6[C@@H]7CC(C)(C)CC[C@]7(CO)[C@@H](O)C[C@@]6(C)[C@]5(C)CC[C@H]4C3(C)C)O[C@@H]2CO[C@@H]2O[C@H](CO)[C@@H](O)[C@H](O)[C@H]2O)[C@H](O)[C@H](O)[C@H]1O [Saikosaponin F] | 1% | 0% | – | –
3 | CC[C@@H](C(=O)[C@@H](C)[C@@H](O)[C@H](C)[C@@H]1O[C@@H]([C@@H](CC)C(=O)O)CC[C@@H]1C)[C@H]1O[C@]2(C=C[C@@H](O)[C@]3(CC[C@@](C)([C@H]4CC[C@](O)(CC)[C@H](C)O4)O3)O2)[C@H](C)C[C@@H]1C [Salinomycin (sodium salt)] | 28% | 18% | – | –
4 | C[n+]1cc2c3c(ccc2c2ccc4cc5c(cc4c21)OCO5)OCO3.[Cl-] [Sanguinarine (chloride)] | – | 20% and 27% | – | –
5 | CCOC(=O)NCCCC(=O)NCCc1ccccc1 [Santacruzamate A] | 0% | 0% | – | –
6 | CC(C)(C)NC(=O)[C@@H]1C[C@@H]2CCCC[C@@H]2CN1C[C@@H](O)[C@H](Cc1ccccc1)NC(=O)[C@H](CC(N)=O)NC(=O)c1ccc2ccccc2n1.CS(=O)(=O)O [Saquinavir (Mesylate)] | 0% | 10% | – | –
7 | Cl.O=C(O)c1cn(-c2ccc(F)cc2)c2cc(N3CCNCC3)c(F)cc2c1=O [Sarafloxacin (hydrochloride)] | 32% | 3% | – | –
8 | COC(=O)C1=COC2OC3CC1C2C(C)O3 (centres unmarked) [Sarracenin] | 11% | 27% | – | –
9 | COc1ccc(-c2cc(=O)c3c(O)cc(O)c(-c4cc(-c5cc(=O)c6c(O)cc(OC)cc6o5)ccc4OC)c3o2)cc1 [Sciadopitysin] | 0% | 21% | – | –
10 | CC1(C)CCC[C@]2(C)[C@H]3CC(=O)O[C@]3(C)CC[C@@H]12 [Sclareolide] | 1% | 25% | – | –
11 | CN1[C@@H]2CC(O)C[C@H]1[C@@H]1O[C@@H]12 (some centres unmarked) [Scopine] | 13% | 5% | – | –
12 | COc1ccc(-c2cc(=O)c3c(OC)c(OC)c(OC)cc3o2)cc1 [Scutellarein tetramethyl ether] | 0% | 0% | – | –
13 | C=C[C@H]1[C@H](O[C@@H]2O[C@H](CO)[C@@H](O)[C@H](O)[C@H]2O)OC=C(C(=O)OC)[C@H]1CC(=O)O [Secoxyloganin] | 0% | 3% | – | –
14 | Clc1ccc(C(Cn2ccnc2)OCc2csc3c(Cl)cccc23)c(Cl)c1.O=[N+]([O-])O (centres unmarked) [Sertaconazole (nitrate)] | 40% | 6% | – | –
15 | COC(=O)C1=CO[C@@H](O[C@@H]2O[C@H](CO)[C@@H](O)[C@H](O)[C@H]2O)[C@@H]2[C@@]3(C)O[C@H]3[C@@H](O)[C@]12O [Sesamoside] | 4% | 25% | – | –
16 | C[C@]1(O)C[C@@H](O)[C@@H]2C(C(=O)O)=CO[C@@H](O[C@@H]3O[C@H](CO)[C@@H](O)[C@H](O)[C@H]3O)[C@@H]21 [Shanziside] | 1% | 4% | – | –

Row | Compound | Percentage of motility inhibition 0 h [1] | Percentage of motility inhibition 24 h [2] | Percentage of motility inhibition 0 h (110 µM) | Percentage of motility inhibition 24 h (110 µM)
17 | CC(C)=CCC[C@]1(C)CC[C@]2(C)[C@H]3CC[C@@]4(C)[C@@H](CCC(=O)[C@@H]4C)[C@]3(C)CC[C@@]2(C)C1 [Shionone] | 24% | 52% | – | –
18 | C[C@H](CC[C@@H](O[C@@H]1O[C@H](CO[C@@H]2O[C@H](CO)[C@@H](O)[C@H](O)[C@H]2O)[C@@H](O)[C@H](O)[C@H]1O[C@@H]1O[C@H](CO)[C@@H](O)[C@H](O)[C@H]1O)C(C)(C)O)[C@H]1CC[C@@]2(C)[C@@H]3CC=C4[C@@H](CC[C@H](O[C@@H]5O[C@H](CO)[C@@H](O)[C@H](O)[C@H]5O)C4(C)C)[C@]3(C)[C@H](O)C[C@]12C [Siamenoside I] | 16% | 10% | – | –
19 | COc1cc([C@@H]2Oc3c(O)cc([C@H]4Oc5cc(O)cc(O)c5C(=O)[C@@H]4O)cc3[C@H]2CO)ccc1O [Silychristin] | 33% | 2% | – | –
20 | COc1cc(/C=C/C(=O)OCC[N+](C)(C)C)cc(OC)c1O.N#C[S-] [Sinapine (thiocyanate)] | 0% | 0% | – | –
21 | COc1cc(/C=C/C(=O)OCC[N+](C)(C)C)cc(OC)c1O [Sinapine] | – | – | 0% | 1%
22 | C=CC/C(=N\OS(=O)(=O)[O-])S[C@@H]1O[C@H](CO)[C@@H](O)[C@H](O)[C@H]1O.O.[K+] [Sinigrin (hydrate)] | 0% | 19% | – | –
23 | C=CC/C(=N/OS(=O)(=O)[O-])S[C@@H]1OC(CO)[C@@H](O)C(O)C1O.[K+] (some centres unmarked) [Sinigrin] | 0% | 0% | – | –
24 | COC1=C[C@@H]2[C@@H]3Cc4ccc(OC)c(O)c4[C@]2(CCN3C)CC1=O.Cl [Sinomenine hydrochloride] | – | 0% and 8% | – | –
25 | COC1=C[C@@H]2[C@@H]3Cc4ccc(OC)c(O)c4[C@]2(CCN3C)CC1=O [Sinomenine] | – | 3% and 0% | – | –
26 | C[C@H]1CC[C@@H]2N(C1)C[C@H]1[C@@H]3C[C@H]4[C@@H](CC(=O)[C@H]5C[C@@H](O)CC[C@@]54C)[C@@H]3CC[C@H]1[C@]2(C)O [Sipeimine] | 0% | 9% | – | –
27 | CN[C@@H]1[C@@H](O)[C@@H](O[C@@H]2[C@@H](O)[C@H](O[C@H]3OC(CN)=CC[C@H]3N)[C@@H](N)C[C@H]2N)OC[C@]1(C)O.CN[C@@H]1[C@@H](O)[C@@H](O[C@@H]2[C@@H](O)[C@H](O[C@H]3OC(CN)=CC[C@H]3N)[C@@H](N)C[C@H]2N)OC[C@]1(C)O.O=S(=O)(O)O.O=S(=O)(O)O.O=S(=O)(O)O.O=S(=O)(O)O.O=S(=O)(O)O [Sisomicin (sulfate)] | 2% | 0% | – | –
28 | O=C([O-])c1ccccc1O.[Na+] [Sodium Salicylate] | 2% | 4% | – | –
29 | O.O.O=C([O-])CC(O)(CC(=O)[O-])C(=O)[O-].[Na+].[Na+].[Na+] [Sodium citrate (dihydrate)] | 32% | 2% | – | –
30 | CCCCCCCC/C=C\CCCCCCCC(=O)[O-].[Na+] [Sodium oleate] | 0% | 0% | – | –
31 | O.O=C1C=CC[C@@H]2[C@H]3CCCN4CCC[C@@H](CN12)[C@@H]34 [Sophocarpine (monohydrate)] | 0% | 0% | – | –
